What was measured:
[1] = system: human immunodeficiency virus (HIV); conditions: macrophages and dendritic cells, PBMCs of infected patients; cited from earlier work
[2] = healthy volunteers and patients suffering from cancer; cited from earlier work
[3] = HIV+ patients, phase I and phase IIa; cited from earlier work
[4] = cited from earlier work
[5] = system: PBMCs; test: Toxicity (number of live cells) in the same PBMC cultures; format: cell-based, human; conditions: live cells unchanged at start, appear to increase at end of culturing
From the text: (§1) Specifically, MB inhibits by 70 to 100% the level of HIV viral protein p24 in the culture supernatants. This effect correlates with the level of expression of viral messenger RNAs (nonspliced and single-spliced).

[6] = system: chemokines; test: Profile of secreted cytokines and chemokines in PBMC cultures; format: cell-based, human; conditions: PBMC cultures of HIV patients
From the text: as §1

[7] = system: mRNA encoding the Ro/SSA-like protein; test: Semiquantitative RT-PCR of the expression of the mRNA encoding Ro/SSA-like in PBMCs; format: cell-based, human
Protocol: PBMCs from patients (P) infected with HIV or from control healthy donors (C) are isolated, depleted of CD8+ (Dynabeads, Dynal) and stimulated with PHA (5 μg/ml) for 3 days. The cells are then treated or not treated with murabutide (10 μ/ml) in the presence of interleukin 2 (IL2) (10U/ml) in RPMI medium supplemented with 10% fetal calf serum (FCS) for 6 hours or 24 hours in a proportion of a minimum of 5×10^6 cells per condition.
After treatment, the RNA in the cells is extracted (RNAplus, Quantum-bioprobe), then treated with DNase (Boerhinger) and reverse transcribed (RT) using an oligo(dT) in the presence of the Mu-MLV reverse transcriptase (Superscript II, Gibco).
The quality of the RTs is verified by PCR (25 cycles) with primers specific for GAPDH (5′GCCATCAATGACCCCTTCATTGAC 3′) (SEQ ID No. 18) and (5′TGACGAACATGGGGGCATCAGCAG 3′) (SEQ ID No. 19) using 20, 100 and 500 ng of total RNA. The inventors then carried out RT-PCRs (35 cycles) with primers specific for the mRNA encoding Ro/SSA-like, (5′ GAAAGAGAGGTCGCAGAGGCCTGT 3′) (SEQ ID No. 20) and (5′ TGATAAGGCTGAGGAAGGGAAATG 3′) (SEQ ID No. 21). The number of amplification cycles was determined beforehand (35 cycles). The amplified fragments are visualized on agarose gel (1%) in the presence of ethidium bromide, and then quantified using the Imager master program (Pharmacia).
For each dilution, the given value for the gene studied is related to that of the GAPDH (ratio=R). For each patient and each time (6 h or 24 h), the R of the cells treated with murabutide is related to that of the untreated cells. The results are then expressed as % increase or inhibition of expression of the gene relative to the untreated cells. It should be noted that, for each dilution tested, the R can vary slightly; the mean for the Rs was produced by taking care to always be in the linear phase of amplification.

[8] = molecular target: recombinant SSA-60 protein (UniProt P10155); test: ELISA on coated recombinant protein, control at 1/100
UniProt P10155, sequence (P10155 whole entry): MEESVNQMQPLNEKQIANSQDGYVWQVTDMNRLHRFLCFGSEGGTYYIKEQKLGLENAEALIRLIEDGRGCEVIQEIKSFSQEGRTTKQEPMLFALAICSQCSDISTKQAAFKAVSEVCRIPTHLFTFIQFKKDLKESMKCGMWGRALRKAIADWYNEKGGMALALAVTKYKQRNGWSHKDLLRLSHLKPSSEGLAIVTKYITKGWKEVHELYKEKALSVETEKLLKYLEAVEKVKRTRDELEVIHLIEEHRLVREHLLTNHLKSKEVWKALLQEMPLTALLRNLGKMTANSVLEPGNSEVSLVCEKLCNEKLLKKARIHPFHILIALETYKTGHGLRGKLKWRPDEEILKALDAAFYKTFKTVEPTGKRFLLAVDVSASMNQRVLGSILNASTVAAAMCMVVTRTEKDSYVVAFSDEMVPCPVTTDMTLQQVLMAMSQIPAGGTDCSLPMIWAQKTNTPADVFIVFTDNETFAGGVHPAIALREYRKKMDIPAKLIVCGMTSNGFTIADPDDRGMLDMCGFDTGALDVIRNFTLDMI

[9] = molecular target: HIV Nef (HIV); test: as above
[10] = molecular target: recombinant SSB-48 protein (UniProt P05455); test: as above
UniProt P05455, sequence (P05455 whole entry): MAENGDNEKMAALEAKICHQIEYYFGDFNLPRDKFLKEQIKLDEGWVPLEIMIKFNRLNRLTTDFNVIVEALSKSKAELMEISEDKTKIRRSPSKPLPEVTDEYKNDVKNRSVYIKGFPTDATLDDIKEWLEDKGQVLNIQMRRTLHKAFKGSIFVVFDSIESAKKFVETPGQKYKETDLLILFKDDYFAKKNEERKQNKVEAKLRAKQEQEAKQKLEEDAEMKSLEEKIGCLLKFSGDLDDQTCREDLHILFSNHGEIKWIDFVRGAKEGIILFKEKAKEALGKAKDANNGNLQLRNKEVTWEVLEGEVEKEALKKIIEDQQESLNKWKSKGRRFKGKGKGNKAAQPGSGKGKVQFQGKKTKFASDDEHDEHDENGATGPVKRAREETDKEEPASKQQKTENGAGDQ

[11] = molecular target: recombinant Ro/SSA-like (SSA-56) protein, complete 485 aa open reading frame, His-tagged, expressed in E. coli (human) (UniProt Q6AZZ1); test: as above
[12] = molecular target: recombinant SSA-52 protein (human) (UniProt P19474); test: as above
UniProt P19474, sequence (P19474 whole entry): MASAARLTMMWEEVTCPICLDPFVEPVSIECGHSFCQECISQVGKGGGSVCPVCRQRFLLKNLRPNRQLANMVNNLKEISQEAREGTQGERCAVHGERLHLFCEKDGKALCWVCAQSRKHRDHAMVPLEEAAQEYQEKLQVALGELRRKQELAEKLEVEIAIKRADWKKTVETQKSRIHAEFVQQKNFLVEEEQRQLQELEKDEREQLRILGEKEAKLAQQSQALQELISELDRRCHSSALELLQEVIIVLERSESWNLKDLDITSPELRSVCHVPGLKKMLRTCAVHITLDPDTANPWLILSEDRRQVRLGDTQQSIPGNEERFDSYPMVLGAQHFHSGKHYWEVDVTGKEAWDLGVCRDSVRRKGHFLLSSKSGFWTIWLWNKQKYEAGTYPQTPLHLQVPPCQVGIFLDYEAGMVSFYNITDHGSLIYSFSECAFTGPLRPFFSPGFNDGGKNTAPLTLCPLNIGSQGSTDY

[13] = molecular target: HIV Tat (HIV); test: as above
[14] = molecular target: Helicase; test: as above

Molecule	HIV replication [1]	severe toxicity in clinical studies [2]	clinical tolerance [3]	inflammatory reactions ([4]; in vivo)	pyrogenicity ([4]; unlike MDP and many other analogs)	toxicity, number of live cells [5]	induction of chemokines known to be inhibitors of HIV replication [6]	inhibition of expression of the mRNA encoding Ro/SSA-like ([7]; PBMCs from HIV+ patients after stimulation with murabutide)	inhibition of expression of the mRNA encoding Ro/SSA-like relative to untreated cells ([7]; PBMCs from HIV+ patients, murabutide 10 μ/ml, 6 h or 24 h, 7 patients/10)	inhibition of expression of the mRNA encoding Ro/SSA-like ([7]; PBMCs from healthy controls, observed only in 3 cases out of 8)	Absorbance value at 1/100 [8] [absorbance]	Absorbance value at 1/100 [9] [absorbance]	Absorbance value at 1/100 [10] [absorbance]	Absorbance value at 1/100 [11] [absorbance]	Absorbance value at 1/100 [12] [absorbance]	Absorbance value at 1/100 [13] [absorbance]	Absorbance value at 1/100 [14] [absorbance]
CCCCOC(=O)[C@@H](CCC(N)=O)NC(=O)[C@H](C)NC(=O)[C@@H](C)O[C@H]1[C@H](O)[C@@H](CO)OC(O)[C@@H]1NC(C)=O (some centres unmarked) [Murabutide]	inhibits human immunodeficiency virus (HIV) replication	has not shown any severe toxicity	good clinical tolerance	does not induce inflammatory reactions	not pyrogenic	lack of toxicity	induces reproduction of chemokines	significant inhibition	more than 40%	inhibition is weaker	–	–	–	–	–	–	–
Control SP20	–	–	–	–	–	–	–	–	–	–	0.068	0.056	0.051	0.058	0.059	0.068	0.055

Reference: patent US20030186269A1, “Ssa-56 kda polypeptide and its fragments and polynucleotides encoding said polypeptides and therapeutic uses” (priority 2000, published 2003)
